The text below walks through data of patent US10942183B2, “Methods of detecting progesterone receptor and of detecting an expression level” (REGENTS OF THE UNIVERSITY OF MINNESOTA, priority 2017, dated 2021).

Assay [1] deals with ERK1/2. The experiment in a line: Breast tumor explants, phospho-ERK1/2 IHC. It counts as cell-based, human. The following applies: progesterone 10 nM, 2 hours.
Assay [2] deals with PR Ser294 phosphorylation. The experiment in a line: Breast tumor explants, phospho-Ser294 PR IHC. The following applies: progesterone 10 nM, 2 hours, IHC, n=6. It counts as cell-based, human.
From the text: De-identified breast tumor samples were collected after surgery and immediately processed for tissue explant maintenance on sponges in cell culture medium, as previously described (Ravindranathan et al. Nature Communications 2013, 4:1923). Samples were derived from six patients pathologically diagnosed with invasive ductal carcinoma (IDC) and scored positive for ER (94-100%) and PR (1-100%), and negative for HER2 expression. […] In additional experiments, six explants were similarly treated with estrogen or progesterone (2 hours) but in combination with 1 uM U0126 (to inhibit ERKs 1/2) and phospho-Ser294 PR levels were measured by IHC.
ER+ luminal tumors were maintained as explants as above and instead treated with either vehicle or progesterone (10 nM) for 2 hours in the presence or absence of the MEK1/2 inhibitor U0126 (1 nM) prior to IHC staining using specific antibodies for total and phospho-Ser294 PR as well as ER-alpha and phospho-ERK1/2 (n=6; see Methods).
In assay [3] the test system is SLC37A2 expression in BT474 cells. The experiment in a line: SLC37A2 mRNA expression by RT-qPCR in BT474 cells. It counts as cell-based. The conditions noted are these: unmodified BT474 cells, progestin plus onapristone. The procedure:
(§1) For reverse transcription quantitative polymerase chain reaction (RT-qPCR) assays, 5×10^5 cells/well were plated in six-well dishes, serum starved in modified IMEM for one day before treatment. RNA was extracted using TriPure reagent (Roche, Basel, Switzerland) and cDNA was created using the qScript cDNA SuperMix kit (Quanta Biosciences, Beverly, Mass.). Relative expression levels were determined by qPCR assays performed on a Roche Light-Cycler II using SYBR green master-mix (Roche, Basel, Switzerland). Target gene quantification levels were normalized to the expression of standard housekeeper genes: TBP, ACTB, 18S, and/or GAPDH.
(§2) PR cooperation with one or more RUNX factors may be a mechanism for promoter selection by uniquely modified receptors. The family of RUNX transcription factors (RUNX1, 2, and 3) has complex roles in development and tumor formation with both tumor suppressive and tumor-promoting activities. […] From the GSEA results, SLC37A2, a candidate PR target gene containing multiple RUNX2 binding motifs immediately upstream and within the gene, was identified (FIG. 7A). SLC37A2 is a glucose-6-phosphate transporter expressed in monocytes as well as breast and cervical tissues. […] PR/progestin-dependent regulation of SLC37A2 mRNA expression in multiple cell line models was thus measured. […]
For orientation: In qPCR the cycle at which signal appears reflects the starting amount.

Assay [4] relates to SLC37A2 expression in MCF-7 cells. Briefly: SLC37A2 mRNA expression by RT-qPCR in MCF-7 cells. It counts as cell-based. The procedure: as §1, §2

SMILES strings stand for the structures.

`CC(=O)[C@H]1CC[C@H]2[C@@H]3CCC4=CC(=O)CC[C@]4(C)[C@H]3CC[C@]12C` [progesterone]: the “activation of ERK1/2 (phospho-ERK1/2) in tumor explants” value in assay [1] is reported as “accompanied by activation of ERK1/2”. For the same molecule, in assay [2], the “PR Ser294 phosphorylation in tumor explants” value is listed as “induced robust PR Ser294 phosphorylation”.

On to `CN(C)c1ccc([C@H]2C[C@]3(C)[C@@H](CC[C@]3(O)CCCO)[C@@H]3CCC4=CC(=O)CCC4=C32)cc1` [onapristone], for which the “effect on progestin-stimulated SLC37A2 mRNA expression” value in assay [3] was “effectively blocked”.

`CC#C[C@]1(O)CC[C@H]2[C@@H]3CCC4=CC(=O)CCC4=C3[C@@H](c3ccc(N(C)C)cc3)C[C@@]21C` [mifepristone]: the “effect on progestin-upregulated SLC37A2 expression” value in assay [4] (MCF-7 overexpressing K388R PR, progestin plus mifepristone) is recorded as “blocked”. Also, the “agonist activity on SLC37A2 expression, antiprogestin alone” value in assay [4] (cells expressing KR PRs, RU486 treatment alone) is recorded as “weak partial agonist activity”.
